Assay results published in patent US9326989B2, “Oleyl phosphocholine” (Max-Planck-Gesellschaft zur Foerderung der Wissenschaften …, priority 2007, dated 2016).

Experiments:
[1] = system: canine leishmaniasis; experiment: dosage range (start of activity to start of toxicity) in dog; type: in vivo; settings: higher doses not tolerated, lower doses almost ineffective
[2] = animal experiments
[3] = stability in injection or infusion solutions or tablets; type: physicochemical; settings: 30° C.
Description: For use in veterinary medicine, it is also useful that mixtures of oleyl phosphocholine (90%) and hexadecyl phosphocholine (10%) can be used and can be made available extremely inexpensively from olive oil.

[4] = renal values (creatinine) in long-term applications; type: in vivo; settings: long-term applications over several months, therapeutically effective dosages
Description: Oleyl phosphocholine is the first alkyl phosphocholine which can be used orally and intravenously.

| SMILES | dose at which activity against canine leishmaniasis started [1] | therapeutic action compared to C18-PC (octadecyl) and C18:1(trans)-PC (elaidyl) [2] | stability [3] | renal values (increase in creatinine) [4] |
| --- | --- | --- | --- | --- |
| CCCCCCCCCCCCCCCCOP(=O)([O-])OCC[N+](C)(C)C [HePC, hexadecyl phosphocholine] | 3 mg per kg body weight per day |  |  |  |
| CCCCCCCC/C=C\CCCCCCCCOP(=O)([O-])OCC[N+](C)(C)C [OlPC, oleyl phosphocholine] |  | markedly superior | can be guaranteed over a longer period | no deterioration in the renal values |
